Reference: PubChem BioAssay (NCI)
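Briefly, cells in 96-well plates were exposed to five compound concentrations for 48 h, and endpoints were estimated by linear interpolation. GI50: concentration for 50% inhibition of growth. Definition used: TGI = concentration required for complete inhibition of growth.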

Assays:
Assay in all cases: growth of human tumour cells (NCI), 48 h
HCT-15 colon = tested on: HCT-15 colon
SF-268 CNS = tested on: SF-268 CNS
OVCAR-8 ovarian = tested on: OVCAR-8 ovarian
IGROV1 ovarian = tested on: IGROV1 ovarian
DU-145 prostate = tested on: DU-145 prostate
CCRF-CEM leukemia = tested on: CCRF-CEM leukemia
HS 578T breast = tested on: HS 578T breast
SNB-19 CNS = tested on: SNB-19 CNS
RPMI-8226 leukemia = tested on: RPMI-8226 leukemia
PC-3 prostate = tested on: PC-3 prostate
MDA-MB-435 = tested on: MDA-MB-435
K-562 leukemia = tested on: K-562 leukemia
MOLT-4 leukemia = tested on: MOLT-4 leukemia
MDA-MB-231 breast = tested on: MDA-MB-231 breast
RXF 393 renal = tested on: RXF 393 renal
NCI/ADR-RES ovarian = tested on: NCI/ADR-RES ovarian
UACC-62 melanoma = tested on: UACC-62 melanoma
SN12C renal = tested on: SN12C renal
A549 NSCLC = tested on: A549 NSCLC
HCT-116 colon = tested on: HCT-116 colon
KM12 colon = tested on: KM12 colon
MALME-3M melanoma = tested on: MALME-3M melanoma
OVCAR-5 ovarian = tested on: OVCAR-5 ovarian
SW-620 colon = tested on: SW-620 colon
CAKI-1 renal = tested on: CAKI-1 renal
UO-31 renal = tested on: UO-31 renal
HCC-2998 colon = tested on: HCC-2998 colon
OVCAR-4 ovarian = tested on: OVCAR-4 ovarian
MCF7 breast = tested on: MCF7 breast
HL-60(TB) leukemia = tested on: HL-60(TB) leukemia
NCI-H460 lung = tested on: NCI-H460 lung
SNB-75 CNS = tested on: SNB-75 CNS
SK-OV-3 ovarian = tested on: SK-OV-3 ovarian
SK-MEL-5 melanoma = tested on: SK-MEL-5 melanoma
HOP-92 NSCLC = tested on: HOP-92 NSCLC
SF-539 CNS = tested on: SF-539 CNS
HT29 colon = tested on: HT29 colon
LOX IMVI melanoma = tested on: LOX IMVI melanoma
EKVX NSCLC = tested on: EKVX NSCLC
786-0 renal = tested on: 786-0 renal
SK-MEL-2 melanoma = tested on: SK-MEL-2 melanoma
SK-MEL-28 melanoma = tested on: SK-MEL-28 melanoma
TK-10 renal = tested on: TK-10 renal
T-47D breast = tested on: T-47D breast
ACHN renal = tested on: ACHN renal
OVCAR-3 ovarian = tested on: OVCAR-3 ovarian
SR leukemia = tested on: SR leukemia
NCI-H226 lung = tested on: NCI-H226 lung
NCI-H522 lung = tested on: NCI-H522 lung
U251 CNS = tested on: U251 CNS
UACC-257 melanoma = tested on: UACC-257 melanoma
NCI-H23 lung = tested on: NCI-H23 lung
M14 melanoma = tested on: M14 melanoma
A498 renal = tested on: A498 renal
COLO 205 colon = tested on: COLO 205 colon
HOP-62 NSCLC = tested on: HOP-62 NSCLC
BT-549 breast = tested on: BT-549 breast
SF-295 CNS = tested on: SF-295 CNS

Compound: CC(=O)[O][Hg][CH2]C1(C)COC(C)([CH2][Hg][O]C(C)=O)CO1 (stereo not given)
- GI50 (HCT-15 colon): 0.432 µM
- TGI (HCT-15 colon): 0.9 µM
- GI50 (SF-268 CNS): 4.73 µM
- TGI (SF-268 CNS): 9.17 µM
- GI50 (OVCAR-8 ovarian): 6.03 µM
- TGI (OVCAR-8 ovarian): 52.1 µM
- GI50 (IGROV1 ovarian): 2.35 µM
- TGI (IGROV1 ovarian): 7.12 µM
- GI50 (DU-145 prostate): 10.4 µM
- TGI (DU-145 prostate): 23.1 µM
- GI50 (CCRF-CEM leukemia): 0.306 µM
- TGI (CCRF-CEM leukemia): 1.72 µM
- GI50 (HS 578T breast): 2.61 µM
- TGI (HS 578T breast): 16 µM
- GI50 (SNB-19 CNS): 16.1 µM
- TGI (SNB-19 CNS): 30 µM
- GI50 (RPMI-8226 leukemia): 1.17 µM
- TGI (RPMI-8226 leukemia): 8.29 µM
- GI50 (PC-3 prostate): 16.6 µM
- TGI (PC-3 prostate): 37.5 µM
- GI50 (MDA-MB-435): 2.72 µM
- TGI (MDA-MB-435): 7.18 µM
- GI50 (K-562 leukemia): 0.607 µM
- TGI (K-562 leukemia): 2.71 µM
- GI50 (MOLT-4 leukemia): 0.747 µM
- TGI (MOLT-4 leukemia): 3.14 µM
- GI50 (MDA-MB-231 breast): 12.5 µM
- TGI (MDA-MB-231 breast): 29.2 µM
- GI50 (RXF 393 renal): 1.45 µM
- TGI (RXF 393 renal): 7.08 µM
- GI50 (NCI/ADR-RES ovarian): 19.1 µM
- TGI (NCI/ADR-RES ovarian): 46 µM
- GI50 (UACC-62 melanoma): 4.94 µM
- TGI (UACC-62 melanoma): 9.26 µM
- GI50 (SN12C renal): 0.887 µM
- TGI (SN12C renal): 4.49 µM
- GI50 (A549 NSCLC): 7.79 µM
- TGI (A549 NSCLC): 38.4 µM
- GI50 (HCT-116 colon): 1.22 µM
- TGI (HCT-116 colon): 6.58 µM
- GI50 (KM12 colon): 4.1 µM
- TGI (KM12 colon): 8.4 µM
- GI50 (MALME-3M melanoma): 4.66 µM
- TGI (MALME-3M melanoma): 9.23 µM
- GI50 (OVCAR-5 ovarian): > 49.2 µM
- TGI (OVCAR-5 ovarian): > 63.8 µM
- GI50 (SW-620 colon): 1.51 µM
- TGI (SW-620 colon): 3.11 µM
- GI50 (CAKI-1 renal): 0.805 µM
- TGI (CAKI-1 renal): 2.42 µM
- GI50 (UO-31 renal): 5.07 µM
- TGI (UO-31 renal): 9.83 µM
- GI50 (HCC-2998 colon): 15.7 µM
- TGI (HCC-2998 colon): 30.2 µM
- GI50 (OVCAR-4 ovarian): 26.4 µM
- TGI (OVCAR-4 ovarian): 74.4 µM
- GI50 (MCF7 breast): 0.646 µM
- TGI (MCF7 breast): 2.32 µM
- GI50 (HL-60(TB) leukemia): 2.89 µM
- TGI (HL-60(TB) leukemia): 5.94 µM
- GI50 (NCI-H460 lung): 15.7 µM
- TGI (NCI-H460 lung): 40.4 µM
- GI50 (SNB-75 CNS): 17.7 µM
- TGI (SNB-75 CNS): 34 µM
- GI50 (SK-OV-3 ovarian): 17.5 µM
- TGI (SK-OV-3 ovarian): 31.8 µM
- GI50 (SK-MEL-5 melanoma): 13.4 µM
- TGI (SK-MEL-5 melanoma): 26.5 µM
- GI50 (HOP-92 NSCLC): 5.62 µM
- TGI (HOP-92 NSCLC): 19.1 µM
- GI50 (SF-539 CNS): 17.7 µM
- TGI (SF-539 CNS): 32.6 µM
- GI50 (HT29 colon): 6.67 µM
- TGI (HT29 colon): > 59.2 µM
- GI50 (LOX IMVI melanoma): 1.21 µM
- TGI (LOX IMVI melanoma): 2.67 µM
- GI50 (EKVX NSCLC): 18.4 µM
- TGI (EKVX NSCLC): 36.3 µM
- GI50 (786-0 renal): 16.8 µM
- TGI (786-0 renal): 31 µM
- GI50 (SK-MEL-2 melanoma): 4.31 µM
- TGI (SK-MEL-2 melanoma): 16.4 µM
- GI50 (SK-MEL-28 melanoma): 1.64 µM
- TGI (SK-MEL-28 melanoma): 3.06 µM
- GI50 (TK-10 renal): 2.29 µM
- TGI (TK-10 renal): 6.2 µM
- GI50 (T-47D breast): 2.94 µM
- TGI (T-47D breast): 21.4 µM
- GI50 (ACHN renal): 1.5 µM
- TGI (ACHN renal): 2.84 µM
- TGI (OVCAR-3 ovarian): 0.0232 µM
- GI50 (SR leukemia): 0.607 µM
- TGI (SR leukemia): 3.59 µM
- GI50 (NCI-H226 lung): 6.16 µM
- TGI (NCI-H226 lung): 14.2 µM
- GI50 (NCI-H522 lung): 12.1 µM
- TGI (NCI-H522 lung): 33 µM
- GI50 (U251 CNS): 1.44 µM
- TGI (U251 CNS): 2.79 µM
- GI50 (UACC-257 melanoma): 4.51 µM
- TGI (UACC-257 melanoma): 10.5 µM
- GI50 (NCI-H23 lung): 13.2 µM
- TGI (NCI-H23 lung): 29.3 µM
- GI50 (M14 melanoma): 13.6 µM
- TGI (M14 melanoma): 27.4 µM
- GI50 (A498 renal): 19.4 µM
- TGI (A498 renal): 34.8 µM
- GI50 (COLO 205 colon): 1.47 µM
- TGI (COLO 205 colon): 3.15 µM
- GI50 (HOP-62 NSCLC): 40.5 µM
- TGI (HOP-62 NSCLC): > 63.5 µM
- GI50 (BT-549 breast): 1.76 µM
- TGI (BT-549 breast): 3.64 µM
- GI50 (SF-295 CNS): 3.62 µM
- TGI (SF-295 CNS): 8.44 µM
